Measurements taken from patent US6737383B1, “Herbicidal oxadiazolidines” (priority 1999, dated 2004).

Columns and labels:
bedstraw = assay: Test B pre/postemergence bedstraw; assay type: in vivo, Galium aparine; settings: Preemergence; for Bedstraw plant response rating: scale 0 to 10, 0 is no effect, 10 is complete control
How it was run: (§1)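 Test chemicals in a non-phytotoxic solvent mixture with surfactant were sprayed preemergence onto planted seeds and postemergence onto plants 2 to 18 cm tall (1- to 4-leaf stage). After twelve to sixteen days in a greenhouse, injury was visually rated against untreated controls from 0 (no effect) to 10 (complete control).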

blackgrass = assay: Test B pre/postemergence blackgrass; assay type: in vivo, Alopecurus myosuroides
How it was run: as §1

surinam grass = assay: Test B pre/postemergence surinam grass; assay type: in vivo, Brachiaria decumbens
How it was run: as §1

corn = assay: Test B pre/postemergence corn; assay type: in vivo, Zea mays
How it was run: as §1

crabgrass = assay: Test B pre/postemergence crabgrass; assay type: in vivo, Digitaria sanguinalis
How it was run: as §1

giant foxtail = assay: Test B pre/postemergence giant foxtail; assay type: in vivo, Setaria faberii
How it was run: as §1

morningglory = assay: Test B pre/postemergence morningglory; assay type: in vivo, Ipomoea hederacea
How it was run: as §1

pigweed = assay: Test B pre/postemergence pigweed; assay type: in vivo, Amaranthus retroflexus
How it was run: as §1

soybean = assay: Test B pre/postemergence soybean; assay type: in vivo, Glycine max
How it was run: as §1

velvetleaf = assay: Test B pre/postemergence velvetleaf; assay type: in vivo, Abutilon theophrasti
How it was run: as §1

wheat = assay: Test B pre/postemergence wheat; assay type: in vivo, Triticum aestivum
How it was run: as §1

wild oat = assay: Test B pre/postemergence wild oat; assay type: in vivo, Avena fatua
How it was run: as §1

purple nutsedge = assay: Test B pre/postemergence purple nutsedge; assay type: in vivo, Cyperus rotundus
How it was run: as §1

rice = assay: Test B flood test rice; assay type: in vivo, Oryza sativa
How it was run: (§2)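 Each value is a visual injury score relative to controls, with 10 meaning complete control and 0 no effect. Evaluation took place twelve to sixteen days after the 2-leaf-stage plants were treated and kept in the greenhouse.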

smallflower flatsedge = assay: Test B flood test smallflower flatsedge; assay type: in vivo, Cyperus difformis
How it was run: as §2

duck salad = assay: Test B flood test duck salad; assay type: in vivo, Heteranthera limosa
How it was run: as §2

[1] = Postemergence, Rate 62 g/ha, scale of 0 to 10, 0 is no effect, 10 is complete control
[2] = Postemergence, Rate 125 g/ha, scale 0 to 10, 0 is no effect, 10 is complete control
[3] = Postemergence, Rate 500 g/ha, scale 0 to 10, 0 is no effect, 10 is complete control
[4] = Preemergence, Rate 62 g/ha, scale of 0 to 10 where 0 is no effect and 10 is complete control
[5] = Preemergence, Rate 125 g/ha, scale 0 to 10, 0 is no effect, 10 is complete control
[6] = Preemergence, Rate 500 g/ha, scale of 0 to 10 where 0 is no effect and 10 is complete control
[7] = Rate 250 g/ha, Postemergence, scale of 0 to 10 where 0 is no effect and 10 is complete control
[8] = Rate 62 g/ha, flood test species, Pre-emergence, visual evaluation after twelve to sixteen days
[9] = Rate 125 g/ha, under heading Pre-emergence, flood test species, visual evaluation after twelve to sixteen days
[10] = Rate 250 g/ha, Pre-emergence (flood test species), scale 0 to 10, 0 is no effect, 10 is complete control
[11] = Rate 500 g/ha, Pre-emergence section of Table B, 0 to 10 scale (0 no effect, 10 complete control)

In the case of `CC(C)N(C(=O)n1oc(=O)n(CC2CCC2)c1=O)c1ccc(F)cc1F` [Compound 521], the “Plant response rating, Bedstraw” value (bedstraw; Rate 62 g/ha, scale of 0 to 10 where 0 is no effect and 10 is complete control) is reported as 0, the “Bedstraw plant response rating” value (bedstraw; Rate 125 g/ha) is reported as 0 and the “Bedstraw plant response rating (0 to 10 scale)” value (bedstraw; Rate 250 g/ha) is reported as 0. For the same compound, the “Bedstraw plant response rating” value (bedstraw; Rate 500 g/ha) was 0, the “Blackgrass plant response rating” value (blackgrass; [1]) was 2 and the “Blackgrass plant response rating” value (blackgrass; [2]) was 2. For the same compound, the “Plant response rating, Blackgrass” value (blackgrass; [3]) was 9, the “Plant response rating, Blackgrass” value (blackgrass; [4]) was 0 and the “Blackgrass plant response rating” value (blackgrass; [5]) was 0. For the same compound, the “Blackgrass plant response rating (0 to 10 scale)” value (blackgrass; Preemergence, Rate 250 g/ha) was 0, the “Blackgrass plant response rating” value (blackgrass; [6]) was 3 and the “Plant response rating, Blackgrass” value (blackgrass; [7]) was 7. The “B. signalgrass plant response rating” value (surinam grass; [1]) was 0, the “B. signalgrass plant response rating” value (surinam grass; [2]) was 0 and the “Plant response rating, B. signalgrass” value (surinam grass; [3]) was 3. The “Plant response rating, B. signalgrass” value (surinam grass; [4]) was 0, the “B. signalgrass plant response rating” value (surinam grass; [5]) was 0 and the “B. signalgrass plant response rating (0 to 10 scale, 0 is no effect, 10 is complete control)” value (surinam grass; Preemergence, Rate 250 g/ha) was 0. The “B. signalgrass plant response rating” value (surinam grass; Preemergence, Rate 500 g/ha, scale 0 to 10, 0 is no effect, 10 is complete control) was 9, the “Plant response rating, B. signalgrass” value (surinam grass; [7]) was 0 and the “Corn plant response rating” value (corn; [1]) was 0. For the same compound, the “Corn plant response rating” value (corn; [2]) was 0, the “Plant response rating, Corn” value (corn; [3]) was 0 and the “Plant response rating, Corn” value (corn; [4]) was 0. The “Corn plant response rating” value (corn; [5]) was 0, the “Corn plant response rating (0 to 10 scale)” value (corn; Preemergence, Rate 250 g/ha) was 0 and the “Corn plant response rating” value (corn; [6]) was 3. For the same compound, the “Plant response rating, Corn” value (corn; [7]) was 0, the “Crabgrass plant response rating” value (crabgrass; [1]) was 2 and the “Crabgrass plant response rating” value (crabgrass; [2]) was 4. For the same compound, the “Plant response rating, Crabgrass” value (crabgrass; [3]) was 10, the “Plant response rating, Crabgrass” value (crabgrass; [4]) was 10 and the “Crabgrass plant response rating” value (crabgrass; [5]) was 10. The “Crabgrass plant response rating (0 to 10 scale)” value (crabgrass; Preemergence, Rate 250 g/ha) was 10, the “Crabgrass plant response rating” value (crabgrass; [6]) was 10 and the “Plant response rating, Crabgrass” value (crabgrass; [7]) was 10. For the same compound, the “Giant foxtail plant response rating” value (giant foxtail; [1]) was 4, the “Giant foxtail plant response rating” value (giant foxtail; [2]) was 8 and the “Plant response rating, Giant foxtail” value (giant foxtail; [3]) was 9. The “Plant response rating, Giant foxtail” value (giant foxtail; [4]) was 10, the “Giant foxtail plant response rating” value (giant foxtail; [5]) was 10 and the “Giant foxtail plant response rating (0 to 10 scale)” value (giant foxtail; Preemergence, Rate 250 g/ha) was 10. The “Giant foxtail plant response rating” value (giant foxtail; [6]) was 10, the “Plant response rating, Giant foxtail” value (giant foxtail; [7]) was 9 and the “Morningglory plant response rating” value (morningglory; [1]) was 3. For the same compound, the “Morningglory plant response rating” value (morningglory; [2]) was 4, the “Plant response rating, Morningglory” value (morningglory; [3]) was 5 and the “Plant response rating, Morningglory” value (morningglory; [4]) was 0. For the same compound, the “Morningglory plant response rating” value (morningglory; [5]) was 0, the “Morningglory plant response rating (0 to 10 scale)” value (morningglory; Preemergence, Rate 250 g/ha) was 0 and the “Morningglory plant response rating” value (morningglory; [6]) was 0. For the same compound, the “Plant response rating, Morningglory” value (morningglory; [7]) was 3, the “Redroot pigweed plant response rating” value (pigweed; [1]) was 0 and the “Redroot pigweed plant response rating” value (pigweed; [2]) was 0. For the same compound, the “Plant response rating, Redroot pigweed” value (pigweed; [3]) was 4, the “Plant response rating, Redroot pigweed” value (pigweed; [4]) was 0 and the “Redroot pigweed plant response rating” value (pigweed; [5]) was 0. For the same compound, the “Redroot pigweed plant response rating (0 to 10 scale)” value (pigweed; Preemergence, Rate 250 g/ha) was 0, the “Redroot pigweed plant response rating” value (pigweed; [6]) was 0 and the “Plant response rating, Redroot pigweed” value (pigweed; [7]) was 0. The “Soybean plant response rating” value (soybean; [1]) was 4, the “Soybean plant response rating” value (soybean; [2]) was 4 and the “Plant response rating, Soybean” value (soybean; [3]) was 5. For the same compound, the “Plant response rating, Soybean” value (soybean; [4]) was 0, the “Soybean plant response rating” value (soybean; [5]) was 0 and the “Soybean plant response rating (0 to 10 scale)” value (soybean; Preemergence, Rate 250 g/ha) was 0. For the same compound, the “Soybean plant response rating” value (soybean; [6]) was 0, the “Plant response rating, Soybean” value (soybean; [7]) was 5 and the “Velvetleaf plant response rating” value (velvetleaf; [1]) was 0. The “Velvetleaf plant response rating” value (velvetleaf; [2]) was 0, the “Plant response rating, Velvetleaf” value (velvetleaf; [3]) was 3 and the “Plant response rating, Velvetleaf” value (velvetleaf; [4]) was 0. The “Velvetleaf plant response rating” value (velvetleaf; [5]) was 0, the “Velvetleaf plant response rating (0 to 10 scale)” value (velvetleaf; Preemergence, Rate 250 g/ha) was 2 and the “Velvetleaf plant response rating” value (velvetleaf; [6]) was 3. For the same compound, the “Plant response rating, Velvetleaf” value (velvetleaf; [7]) was 2, the “Wheat plant response rating” value (wheat; [1]) was 0 and the “Wheat plant response rating” value (wheat; [2]) was 0. The “Plant response rating, Wheat” value (wheat; [3]) was 2, the “Plant response rating, Wheat” value (wheat; [4]) was 0 and the “Wheat plant response rating” value (wheat; [5]) was 0. For the same compound, the “Wheat plant response rating (0 to 10 scale)” value (wheat; Preemergence, Rate 250 g/ha) was 0, the “Wheat plant response rating” value (wheat; [6]) was 0 and the “Plant response rating, Wheat” value (wheat; [7]) was 0. The “Wild oats plant response rating” value (wild oat; [1]) was 0, the “Wild oats plant response rating” value (wild oat; [2]) was 0 and the “Plant response rating, Wild oats” value (wild oat; [3]) was 2. For the same compound, the “Plant response rating, Wild oats” value (wild oat; [4]) was 0, the “Wild oats plant response rating” value (wild oat; [5]) was 0 and the “Wild oats plant response rating (0 to 10 scale)” value (wild oat; Preemergence, Rate 250 g/ha) was 0. For the same compound, the “Wild oats plant response rating” value (wild oat; [6]) was 2, the “Plant response rating, Wild oats” value (wild oat; [7]) was 0 and the “Nutsedge plant response rating” value (purple nutsedge; [1]) was 0. For the same compound, the “Nutsedge plant response rating” value (purple nutsedge; [2]) was 0, the “Plant response rating, Nutsedge” value (purple nutsedge; [3]) was 0 and the “Plant response rating, Nutsedge” value (purple nutsedge; [4]) was 0. For the same compound, the “Nutsedge plant response rating” value (purple nutsedge; [5]) was 0, the “Nutsedge plant response rating (0 to 10 scale)” value (purple nutsedge; Preemergence, Rate 250 g/ha) was 0 and the “Nutsedge plant response rating” value (purple nutsedge; [6]) was 0. The “Plant response rating, Nutsedge” value (purple nutsedge; [7]) was 0, the “Plant response rating, Rice (0 to 10 scale, 0 is no effect, 10 is complete control)” value (rice; [8]) was 0 and the “Rice plant response rating (0 to 10 scale, 0 is no effect, 10 is complete control)” value (rice; [9]) was 0. For the same compound, the “Rice plant response rating” value (rice; [10]) was 0, the “Rice plant response rating” value (rice; [11]) was 0 and the “Plant response rating, S. Flatsedge (0 to 10 scale, 0 is no effect, 10 is complete control)” value (smallflower flatsedge; [8]) was 0. For the same compound, the “S. Flatsedge plant response rating (0 to 10 scale, 0 is no effect, 10 is complete control)” value (smallflower flatsedge; [9]) was 0, the “S. Flatsedge plant response rating” value (smallflower flatsedge; [10]) was 0 and the “S. Flatsedge plant response rating” value (smallflower flatsedge; [11]) was 0. The “Plant response rating, Ducksalad (0 to 10 scale, 0 is no effect, 10 is complete control)” value (duck salad; [8]) was 0, the “Ducksalad plant response rating (0 to 10 scale, 0 is no effect, 10 is complete control)” value (duck salad; [9]) was 0 and the “Ducksalad plant response rating” value (duck salad; [10]) was 0. The “Ducksalad plant response rating” value (duck salad; [11]) was 0.
